Read-outs that look alike come from different tables or passages of the source. *1 amine or outer side, *2 acyl side, *3 side chain or, on linkers, in order; H or OH if unused. Where a SMILES comes first, the peptide text is derived from it. Bridges are numbered along the chain shown (N, C = ends). [ ]: non-standard residue; d: D form. NH(CH2)4NH = C(CCN[*:2])CN[*:1]
How the values were obtained:
MCF-7 cells = type: cell-based, human
Method: Human breast cancer cell line MCF-7 and mammary epithelial cell line MCF-10A were purchased from American Type Culture Collection (ATCC, Manassas, Va., USA). Breast cancer cell line KPL-3C (J. Kurebayashi, et al., Br. J. Cancer 74, 200-207 (1996)) was kindly provided by Dr. Junichi Kurebayashi (Kawasaki Medical School). All cell lines were monolayer cultured in an appropriate medium supplemented with 10% FBS. The cells were maintained at 37° C. under humidified atmosphere containing 5% CO2.
In each experiment, the respective cells were seeded in a 48-well plate (2×10^4 cells/mL), a 6-well plate (3×10^5 cells/mL), or a 10-cm dish (2×10^6 cells/10 mL). MCF-7 cells were seeded in MEM (Thermo Fisher Scientific) supplemented with 10% FBS (Nichirei Biosciences Inc., Tokyo, Japan), 1% Antibiotic/Antimycotic solution (Thermo Fisher Scientific, Waltham, Mass., USA), 0.1 mM NEAA (Thermo Fisher Scientific), 1 mM sodium pyruvate (Thermo Fisher Scientific), and 10 μg/mL insulin (Sigma, St. Louis, Mo., USA). KPL-3C cells were seeded in RPMI (Thermo Fisher Scientific) supplemented with 10% FBS and 1% Antibiotic/Antimycotic solution. MCF-10A cells were seeded in MEBM (Lonza) supplemented with a Single Quots kit (BPE, hydrocortisone, hEGF, insulin, gentamycin/amphoterin-B) (Lonza, Walkersville, Md., USA) and 100 ng/mL cholera toxin. For 17β-estradiol (E2) (Sigma) stimulation, the media for MCF-7 and KPL-3C were changed to phenol red-free DMEM/F12 (Thermo Fisher Scientific) supplemented with 10% FBS, 1% Antibiotic/Antimycotic solution, 0.1 mM NEAA, 1 mM sodium pyruvate, and 10 μg/mL insulin on the day after seeding. Twenty-four hours later, the cells were treated with 10 nM E2 and a peptide (for example, 11R-ERAP or a stapled ERAP), or with 10 nM E2 alone.
When carrying out treatment with tamoxifen (Sigma) or fulvestrant (LKT laboratories, St. Paul, Minn., USA), cells were treated with 10 nM tamoxifen or 2 μM fulvestrant simultaneously with the above-mentioned treatment with E2 and a peptide or with E2 alone.
Cell growth assays on MCF-7, KPL-3C, and MCF-10A were carried out as described previously using a Cell Counting Kit-8 (CCK-8) (Dojindo, Kumamoto, Japan) (T. Yoshimaru, et al., Nat. Commun. 4, 2443 (2013)). The data are shown by mean±SE of three independent experiments.

BIG3-PHB2 interaction = molecular target: T1, BIG3-PHB2 interaction (Homo sapiens, UniProt Q99623); experiment: Co-immunoprecipitation with anti-BIG3 antibody in MCF-7 cells; type: cell-based; conditions: MCF-7, 1 μM, 24 hours after treatment
T1 construct: complex formation between the endogenous BIG3 and PHB2 in ERα-positive breast cancer cell line MCF-7; endogenous in cells; host or cells: MCF-7
Method: Immunoblot analyses were performed as described previously (T. Yoshimaru, et al., Nat. Commun. 4, 2443 (2013)). After performing SDS-PAGE, the membranes blotted with proteins were blocked with 4% BlockAce solution (Dainippon Pharmaceutical, Osaka, Japan) for three hours and then incubated with antibodies against the following proteins: BIG3 (1:1,000) (T. Yoshimaru, et al., Nat. Commun. 4, 2443 (2013)); PHB2 (1:1,000) (Abeam, Cambridge, UK); Akt, phosphorylated Akt (S473) (587F11, 1:1,000); p44/42 MAPK, phosphorylated p44/42 MAPK (T202/Y204) (1:1,000); α/β-tubulin (1:1,000) (Cell Signaling Technology, Danvers, Mass., USA); and LMNB1 (1:100) (Sigma). After incubation with an HRP-labeled secondary antibody (anti-mouse IgG-HRP, 1:5,000; anti-rat IgG-HRP; 1:5,000; or anti-rabbit IgG-HRP, 1:1,000) (Santa Cruz Biotechnology, Dallas, Tex., USA) for one hour, the blots were developed with an Enhanced Chemiluminescence (ECL) system (GE Healthcare, Buckinghamshire, UK) and scanned using an Image Reader LAS-3000 mini (Fujifilm, Tokyo, Japan). All the experiments were performed at least in triplicate.
Immunoprecipitation analysis was performed as described previously (T. Yoshimaru, et al., Nat. Commun. 4, 2443 (2013)). Cell lysates were pre-cleared with normal IgG and rec-Protein G Sepharose 4B (Thermo Fisher Scientific) at 4° C. for three hours. Then, the supernatants were incubated with 5 μg of an antibody against BIG3 or an antibody against PHB2 at 4° C. for twelve hours. Next, the antigen-antibody complexes were precipitated using rec-Protein G Sepharose 4B at 4° C. for one hour. The immunoprecipitated protein complexes were washed several times with a lysis buffer. Then, SDS-PAGE and immunoblot analyses were carried out as described above.

T1 sequence (Q99623 2-299 limits assumed): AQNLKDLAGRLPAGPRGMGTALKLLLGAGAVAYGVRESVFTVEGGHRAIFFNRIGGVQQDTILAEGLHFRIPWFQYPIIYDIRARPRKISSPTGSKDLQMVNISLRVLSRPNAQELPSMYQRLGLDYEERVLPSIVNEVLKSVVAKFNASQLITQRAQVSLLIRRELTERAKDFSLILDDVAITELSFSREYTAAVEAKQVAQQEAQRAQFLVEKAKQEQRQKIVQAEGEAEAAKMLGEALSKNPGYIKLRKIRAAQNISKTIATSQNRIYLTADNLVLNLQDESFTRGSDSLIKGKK

CSCC[C@H](NC(=O)[C@@H](N)CCC(N)=O)C(=O)N[C@@H](CC(C)C)C(=O)N[C@@H](CO)C(=O)N[C@@H](CC(=O)O)C(=O)N[C@@H](CC(C)C)C(=O)N[C@H](C(=O)N[C@@H](CC(C)C)C(=O)N[C@@H](CCC(N)=O)C(=O)N[C@@H](CC(C)C)C(=O)N[C@@H](CCCNC(=N)N)C(=O)N[C@@H](CCCNC(=N)N)C(=O)N[C@@H](CCCNC(=N)N)C(=O)N[C@@H](CCCNC(=N)N)C(=O)N[C@@H](CCCNC(=N)N)C(=O)N[C@@H](CCCNC(=N)N)C(=O)N[C@@H](CCCNC(=N)N)C(=O)N[C@@H](CCCNC(=N)N)C(=O)O)[C@@H](C)O [QMLSDLTLQL-8R] (H-QMLSDLTLQLRRRRRRRR-OH; N-terminus and C-terminus assumed) gave an IC50 (MCF-7 cells) of 7.98 µM.
CSCC[C@H](NC(=O)[C@@H](N)CCC(N)=O)C(=O)N[C@@H](CC(C)C)C(=O)N[C@@H](CO)C(=O)N[C@@H](CC(=O)O)C(=O)N[C@@H](CC(C)C)C(=O)N[C@H](C(=O)N[C@@H](CC(C)C)C(=O)N[C@@H](CCC(N)=O)C(=O)N[C@@H](CC(C)C)C(=O)N[C@@H](CCCNC(=N)N)C(=O)N[C@@H](CCC(N)=O)C(=O)N[C@@H](CCCNC(=N)N)C(=O)N[C@@H](CCCNC(=N)N)C(=O)N[C@@H](CCCNC(=N)N)C(=O)N[C@@H](CCCNC(=N)N)C(=O)N[C@@H](CCCNC(=N)N)C(=O)N[C@@H](CCCNC(=N)N)C(=O)N[C@@H](CCCNC(=N)N)C(=O)N[C@@H](CCCNC(=N)N)C(=O)N[C@@H](CCCNC(=N)N)C(=O)O)[C@@H](C)O [QMLSDLTLQLRQR-8R] (H-QMLSDLTLQLRQRRRRRRRRR-OH; N-terminus and C-terminus assumed) showed an IC50 (MCF-7 cells) of 7.78 µM.
For CSCC[C@@H](NC(=O)[C@H]1CCC(=O)NCCCCNC(=O)CC[C@@H](NC(C)=O)C(=O)N[C@H](CC(C)C)C(=O)N[C@H](CC(=O)O)C(=O)N[C@H](CO)C(=O)N1)C(=O)N[C@H](CCC(N)=O)C(N)=O [shRI stapled ERAP No. 12] (Ac-[dE][dL][dD][dS][dE][dM][dQ]-NH2; linker 1-5 via NH(CH2)4NH; N-terminus and C-terminus assumed), the “duration of significant cell growth inhibitory effects” value (MCF-7 cells; 1 μM, E2-dependent growth of MCF-7) was “seven”, the IC50 (MCF-7 cells; 96 h) was 0.53 µM and the “inhibition of endogenous BIG3-PHB2 complex formation” value (BIG3-PHB2 interaction) was “inhibited endogenous BIG3-PHB2 complex formation”.
For “QMLSDLTLQLRQR (PHB2-binding peptide derived from BIG3) [ERAP, reference compound]”, the “effect on E2-dependent MCF-7 cell growth” value (MCF-7 cells) was “did not show effects”.

Source: patent US10669310B2, “Peptide for cancer treatment and pharmaceutical composition containing same” (TOKUSHIMA UNIVERSITY, priority 2016, dated 2020)
